# Legend:
# [1] = Inhibition of [3H]diltiazem binding to L-type calcium channels of rabbit skeletal muscle; format: tissue-based, Oryctolagus cuniculus, Muscle tissue
# Substance-P receptor = Substance-P receptor (Homo sapiens, UniProt P25103); test: Inhibition of [125I]-substance P binding to human neurokinin-1 (hNK-1) receptor in CHO cells; format: cell-based
# Substance-P receptor, sequence (P25103 whole entry): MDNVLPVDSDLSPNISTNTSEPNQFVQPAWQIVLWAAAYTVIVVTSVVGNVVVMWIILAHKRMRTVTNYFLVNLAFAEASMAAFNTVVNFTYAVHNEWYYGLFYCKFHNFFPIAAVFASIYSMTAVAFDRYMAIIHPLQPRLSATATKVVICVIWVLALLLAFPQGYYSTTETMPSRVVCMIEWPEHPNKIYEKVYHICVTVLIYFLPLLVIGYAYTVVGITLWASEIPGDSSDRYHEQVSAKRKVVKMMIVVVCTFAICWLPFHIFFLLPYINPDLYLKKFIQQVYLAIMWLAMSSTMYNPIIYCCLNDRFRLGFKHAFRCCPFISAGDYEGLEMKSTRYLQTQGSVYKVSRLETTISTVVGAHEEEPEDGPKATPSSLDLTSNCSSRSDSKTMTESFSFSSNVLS
IC50 [1] [nM],IC50 (Substance-P receptor) [nM],SMILES
5600,1.8,CCCCCN(CCCCC)C(=O)[C@H]1CCN(C(=O)N(c2ccccc2)c2ccccc2)[C@H](C(=O)NCCN(CC(N)=O)Cc2ccccc2OC)C1
820,5.5,CCCCCN(CCCCC)C(=O)[C@H]1CCN(C(=O)N(c2ccccc2)c2ccccc2)[C@H](C(=O)NCCCN(CC)CC)C1
> 5000,20,CCCCCN(CCCCC)C(=O)[C@H]1CCN(C(=O)N(c2ccccc2)c2cccc(Cl)c2)[C@H](C(=O)O)C1
> 5000,33,CCCCCN(CCCCC)C(=O)[C@H]1CCN(C(=O)N(c2ccccc2)c2ccccc2)[C@H](C(=O)O)C1
,73,CCCCCN(CCCCC)C(=O)[C@@H]1CCN(C(=O)N(c2ccccc2)c2ccccc2)[C@H](C(=O)NCCN(C)Cc2ccccc2OC)C1
110,0.7,COc1ccccc1CN(C)CCNC(=O)[C@@H]1C[C@@H](C(=O)N(Cc2ccccc2)Cc2ccccc2)CCN1C(=O)N(c1ccccc1)c1cccc(Cl)c1
3700,3.5,CCCCCN(CCCCC)C(=O)[C@H]1CCN(C(=O)N(c2ccccc2)c2cccc(Cl)c2)[C@H](C(=O)NCCNCC(N)=O)C1
,8,CCCCCN(CCCCC)C(=O)N1CCN(C(=O)N(c2ccccc2)c2cccc(Cl)c2)[C@H](C(=O)NCCCN(CC)CC)C1
210,1.4,CCCCCN(CCCCC)C(=O)[C@H]1CCN(C(=O)N(c2ccccc2)c2cccc(Cl)c2)[C@H](C(=O)NCCN(C)Cc2ccccc2OC)C1
2700,13,CCCCCN(CCCCC)C(=O)[C@H]1CCN(C(=O)N(c2ccccc2)c2ccccc2)[C@H](C(=O)NCCNCC(N)=O)C1
16200,3.8,CCCCCN(CCCCC)C(=O)[C@H]1CCN(C(=O)N(c2ccccc2)c2cccc(Cl)c2)[C@H](C(=O)NCCN(CC(N)=O)Cc2ccccc2OC)C1
> 5000,1.8,CCCCCN(CCCCC)C(=O)[C@H]1CCN(C(=O)N(c2ccccc2)c2cccc(Cl)c2)[C@H](C(=O)NCCN(CC(N)=O)C(=O)OCc2ccccc2)C1
200,1.8,CCCCCN(CCCCC)C(=O)[C@H]1CCN(C(=O)N(c2ccccc2)c2ccccc2)[C@H](C(=O)NCCN(C)Cc2ccccc2OC)C1
470,250,COC(=O)[C@H]1CCN(C(=O)N(c2ccccc2)c2ccccc2)[C@H](C(=O)NCCN(C)Cc2ccccc2OC)C1

SMILES,IC50 [1] [nM],IC50 (Substance-P receptor) [nM]
COc1ccccc1CN[C@H]1C2CCN(CC2)[C@H]1C(c1ccccc1)c1ccccc1 [CP-96345],240,

# Reference: ChEMBL document CHEMBL1159130, “1,2,4-Triacylpiperidine substance p antagonists: Separation of affinities for the NK-1 receptor and the L-type calcium channel” (Bioorg Med Chem Lett, 1995)
